Experimental findings from BindingDB's records for doi:10.1021/jm050513m (The University of Texas At Houston, 2005) are described below.

Broadly, the IC50 is the concentration needed to halve the response being measured.

Each structure is given as a SMILES string. Where “and” joins values, the source holds several entries; their conditions need not be identical. Identical values can stand only once. Numbered stars: 1 amine (or outer) side, 2 acyl side, 3 side chain; on linkers, the order of the positions; unused ones are H or OH. Square brackets hold non-standard residues; d marks the D form. Peptide text beside a SMILES is read from it. * marks the point of attachment. ξ: configuration not given here. pY = N[C@@H](Cc1ccc(OP(=O)(O)O)cc1)C(=O)O; X2 = O=C([C@H]1CCCN([*:1])C1)[*:2]; Hyp = O=C(O)[C@@H]1C[C@@H](O)CN1; Thr(3ξ) = CC(O)[C@H](N)C(=O)O; Pyrrolidide = C1CCN(*)C1; Cbz = O=C(OCc1ccccc1)*

This assay addresses Signal transducer and activator of transcription 3 (Mus musculus, UniProt P42227). The assay is described as follows: Fluorescence Polarization Assay. The procedure: Fluorescence polarization (FP) binding assay is utilizing the intrinsic property of the fluorescent probe, which will have low polarization value when free in solution. On binding to a target, the polarization of the probe will increase. Reaction mixtures of full length STAT3 alpha and the probe were placed in wells of a 96-well microtiter plate. The test peptide solution was added to each well. Fluorescence polarization was then read in a Tecan Polarian plate reader. The IC50 values were obtained from nonlinear regression analysis in the one-site competition mode. Peptides were assayed three times using three separate Stat3-probe preparations. IC50 values are reported as the mean of three IC50 values +/- the standard deviation.
For orientation: In fluorescence polarisation assays a small probe gives low polarisation when free and higher when bound to something large.

Signal transducer and activator of transcription 3, sequence (P42227 whole entry): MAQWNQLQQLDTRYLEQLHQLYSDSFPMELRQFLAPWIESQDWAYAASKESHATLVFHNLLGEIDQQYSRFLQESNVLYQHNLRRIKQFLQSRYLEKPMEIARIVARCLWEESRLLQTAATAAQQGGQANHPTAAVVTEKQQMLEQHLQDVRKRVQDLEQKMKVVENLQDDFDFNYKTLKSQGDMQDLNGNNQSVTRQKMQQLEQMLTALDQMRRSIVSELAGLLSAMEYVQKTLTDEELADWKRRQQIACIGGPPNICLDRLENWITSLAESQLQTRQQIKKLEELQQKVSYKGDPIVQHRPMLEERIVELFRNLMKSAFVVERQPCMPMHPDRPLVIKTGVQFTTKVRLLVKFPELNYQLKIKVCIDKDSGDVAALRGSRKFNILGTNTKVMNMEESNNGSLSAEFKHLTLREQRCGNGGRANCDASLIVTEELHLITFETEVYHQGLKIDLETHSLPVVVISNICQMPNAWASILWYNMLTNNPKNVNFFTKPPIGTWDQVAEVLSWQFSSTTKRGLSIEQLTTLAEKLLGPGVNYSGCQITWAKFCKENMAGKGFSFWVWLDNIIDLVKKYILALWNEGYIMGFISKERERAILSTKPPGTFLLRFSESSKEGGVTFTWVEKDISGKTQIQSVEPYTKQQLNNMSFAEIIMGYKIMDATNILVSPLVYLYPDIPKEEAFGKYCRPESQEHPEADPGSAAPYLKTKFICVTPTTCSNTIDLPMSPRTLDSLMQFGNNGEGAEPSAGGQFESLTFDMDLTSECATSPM

With `CC(=O)N[C@@H](Cc1ccc(OP(=O)(O)O)cc1)C(=O)N[C@@H](CC(C)C)C(=O)N1CCC[C@H]1C(=O)N[C@@H](CCC(N)=O)C(=O)N1CCCC1` [4-[(2S)-2-{[(2S)-1-[(2S)-2-{[(2S)-4-carbamoyl-1-oxo-1-(pyrrolidin-1-yl)butan-2-yl]carbamoyl}pyrrolidin-1-yl]-4-methyl-1-oxopentan-2-yl]carbamoyl}-2-acetamidoethyl]phenoxyphosphonic acid] (Ac-[pY]LPQ-Pyrrolidide), the IC50 is 2110 nM.

`CC(=O)N[C@@H](Cc1ccc(OP(=O)(O)O)cc1)C(=O)N[C@@H](CC(C)C)C(=O)N1C[C@H](O)C[C@H]1C(=O)N[C@@H](CCC(N)=O)C(=O)N[C@H](C(N)=O)C(C)O` (stereo partly drawn) [4-[(2S)-2-{[(2S)-1-[(2S,4R)-2-{[(1S)-3-carbamoyl-1-{[(1S,2S)-1-carbamoyl-2-hydroxypropyl]carbamoyl}propyl]carbamoyl}-4-hydroxypyrrolidin-1-yl]-4-methyl-1-oxopentan-2-yl]carbamoyl}-2-acetamidoethyl]phenoxyphosphonic acid] (Ac-[pY]L[Hyp]Q[Thr(3ξ)]-NH2): where the note is “pH 7.5, 22 °C”, the IC50 was 484 nM.

The compound `CC(C)C[C@H](NC(=O)[C@H](Cc1ccc(OP(=O)(O)O)cc1)NC(=O)OCc1ccccc1)C(=O)N1CCC[C@H]1C(=O)N[C@@H](CCC(N)=O)C(=O)N[C@H](C(N)=O)C(C)O` (stereo partly drawn) [4-[(2S)-2-{[(benzyloxy)carbonyl]amino}-2-{[(2S)-1-[(2S)-2-{[(1S)-3-carbamoyl-1-{[(1S,2S)-1-carbamoyl-2-hydroxypropyl]carbamoyl}propyl]carbamoyl}pyrrolidin-1-yl]-4-methyl-1-oxopentan-2-yl]carbamoyl}ethyl]phenoxyphosphonic acid] (Cbz-[pY]LPQ[Thr(3ξ)]-NH2) had a half-maximal inhibitory concentration (IC50) (pH 7.5, 22 °C) of 750 nM.

With `CC(=O)N[C@@H](Cc1ccc(OP(=O)(O)O)cc1)C(=O)N[C@@H](CC(C)C)C(=O)N1CCC[C@H](C(=O)N[C@@H](CCC(N)=O)C(=O)N[C@H](C(N)=O)C(C)O)C1` (stereo partly drawn) [23, Ac-pTyr-Leu-Nip-Gln-Thr-NH2-2] (Ac-[pY]L[X2]Q[Thr(3ξ)]-NH2), the IC50 (pH 7.5, 22 °C) is 38600 nM and 33100 nM.

In turn, `CC(=O)N[C@@H](Cc1ccc(OP(=O)(O)O)cc1)C(=O)N[C@@H](CC(C)C)C(=O)N1CCC[C@H]1C(=O)N[C@@H](CCC(N)=O)C(=O)O` [(2S)-4-carbamoyl-2-{[(2S)-1-[(2S)-2-[(2S)-2-acetamido-3-[4-(phosphonooxy)phenyl]propanamido]-4-methylpentanoyl]pyrrolidin-2-yl]formamido}butanoic acid] (Ac-[pY]LPQ-OH) registered an IC50 of 748 nM.
